Data published in US20240415835A1, “COMPOSITIONS COMPRISING AN ERK INHIBITOR” (Otsuka Pharmaceutical Co., Ltd., priority 2021, published 2024).
In brackets after ≈: the same amount, converted by molar mass.

What was measured:
[1] = gastric to intestinal (G-IB) transfer microcentrifuge dissolution test; type: physicochemical
Method: The solid dispersions described in Example 1 were evaluated in two non-sink dissolution tests to evaluate various aspects of the formulations and how they might be differentiated. The two dissolution tests that were evaluated include a gastric to intestinal (G-IB) transfer microcentrifuge dissolution test and an ultracentrifuge free-drug test.
The gastric-to-intestinal buffer (G-IB) transfer dissolution test is used to measure the supersaturation of drug above the solubility of bulk drug when dosed as a powder, first into media at a lower pH value to imitate a fasted stomach. After 30 minutes of exposure to the gastric media, the samples are transferred into the higher pH media as an imitation of the intestine. The drug concentrations measured in this test are a composite of free drug, drug in micelles, and drug suspended in solution as drug/polymer colloids.
The G-IB dissolution test is performed the same way, but with a 30 minute gastric exposure prior to transferring into the intestinal media. The intestinal media for the G-IB dissolution test is doubly concentrated in terms of buffering and bile salts, so that after the gastric transfer step, the final pH is 6.5 and SIF concentration is 0.5 wt %.
The microcentrifuge dissolution test separates the precipitate (undissolved drug) and total solubilized drug. Total solubilized drug consists of three solubilized species: freely solubilized drug, drug associated with bile salt micelles, and drug associated with polymer (drug-polymer colloids). These three species have different activities in vivo and differentiate formulations. The freely solubilized drug is the smallest species and is the most readily available for absorption. Freely solubilized drug can cross the unstirred mucous boundary layer and be absorbed into the blood through the epithelium. The drug associated with micelles diffuse across the unstirred mucous boundary layer and resupply free drug as it is absorbed. Finally, the drug-polymer colloids also resupply free drug as it is absorbed and can have a contribution to effective diffusion rate. These colloids can be important depending on the rate-limiting step for absorption.
A solid dispersion comprising Compound I: HPMCAS in a ratio of 1:2 (“33.3% HPMCAS”) was prepared from 2.7 grams of the free base hydrate crystalline form B of Compound I and 5.3 grams of HPMCAS (Shin Etsu, L grade, F particle size (≤10 microns particle size)), using a similar procedure of Example 1. Briefly, 2 mg test compound/mL in 0.9 mL gastric buffer was transferred to a final dose of 1 mg/mL in 1.8 mL of 0.5% SIF in PBS at pH 6.5 at room temperature to provide 1.8 mL total volume test solution. The samples were centrifuged at 15,800 g for 1 minute. At specified timepoint, 50 μL aliquot samples were diluted 6× with 50/50 acetonitrile/water and assayed by HPLC.
The solid dispersion was evaluated together with the 25% Compound I: HPMCAS solid dispersion (“25% HPMCAS”) and 95.3% Compound I (freebase hydrate, “Crystalline API”), using the G-IB dissolution test described in Example 3-1.

[2] = ultracentrifuge free-drug test (drug speciation); type: physicochemical
Method: The ultracentrifuge free-drug analysis is used to determine the species of dissolved drug that are present for each formulation. This test is performed at several timepoints, i.e., 0, 30, 60 and 90 minutes, during the microcentrifuge test, and it consists of a centrifugation step at 300,000 g that removes any colloidal species that are present, leaving only the free drug and drug in micelle species. In combination with the microcentrifuge data, this allows for determination of free drug and colloidal content at the timepoint where both are tested.

[3] = Primate study, 3-way crossover, oral administration; type: in vivo; conditions: monkeys, oral 20 mg/kg, three dosing occasions
Method: A total of 6 animals were used in a 3-way (2+2+2) crossover design where, on each of the three dosing occasions, 2 of the animals were administered Compound I in powder in bottle (PiB) suspension in vehicle for reconstitution (20 mg/kg), 2 of the animals were administered Compound I solid dispersion suspension (20 mg/kg) of Example 1, while another 2 animals were administered Compound I in a tablet form (20 mg/kg) of Example 2. The vehicle for reconstitution comprised Propylene Glycol USP 80.0% w/w; Ethanol USP 10.0% w/w; Vit E TPGS USP 10.0% w/w for a total of 100.0% w/w.
Dosing for this study was conducted in fasted state. […]
The animals were observed closely during the first 12 hrs after each dosing and once daily on non-dosing days. Body weights were measured and recorded prior to dosing and blood samples for pharmacokinetic profiling were taken at the pre-defined time points for all animals. […] All plasma samples from this study were analyzed by this method and plasma concentration of Compound I were expressed in terms of ng/mL.
The error bars refer to standard deviation. […] AUClast refers to the area under the concentration-time curve from dosing (time 0) to the time of the last measured concentration (24 hours).

[4] = intestinal buffer, 0.5% SIF in PBS pH 6.5, 1 mg/mL

## COc1cc(F)cc([C@@H](CO)NC(=O)[C@@H](C)N2Cc3ccc(-c4nc(NC5CCOCC5)ncc4Cl)cc3C2=O)c1 [Crystalline API]
[1]; gastric buffer, 2 mg/mL, room temperature
  CmaxGB: 20000 ng/mL
[1]; intestinal buffer, 0.5% SIF in PBS pH 6.5
  C1200: 21 µg/mL
[1]; [4]
  AUC4-90 IB: 1,610 min*μg/mL
  C90 IB: 21 µg/mL
  Cmax90 IB: 21000 ng/mL
[2]; ultracentrifuge
  Ultra1200: 19 µg/mL
[2]; ultracentrifuge, 90 minutes
  Ultra90: 21 µg/mL

## COc1cc(F)cc([C@@H](CO)NC(=O)[C@@H](C)N2Cc3ccc(-c4nc(NC5CCOCC5)ncc4Cl)cc3C2=O)c1 [Compound I, (2R)-2-(6-{5-chloro-2-[(tetrahydro-2H-pyran-4-yl)amino]pyrimidin-4-yl}-1-oxo-2,3-dihydro-1H-isoindol-2-yl)-N-[(S)-1-(3-fluoro-5-methoxyphenyl)-2-hydroxyethyl]propanamide]
[3]
  clinical signs as a result of treatment: no clinical signs

## COc1cc(F)cc([C@@H](CO)NC(=O)[C@@H](C)N2Cc3ccc(-c4nc(NC5CCOCC5)ncc4Cl)cc3C2=O)c1 [amorphous Compound I]
[2]; pH 6.5, fassgf or other biorelevant, FIG. 2 speciation data from the dissolution test
  solubility: ~15 µg/mL (≈ 25.7 µM)
